From patent US20230147683A1, “TREATMENT” (UNION Therapeutics A/S, priority 2020, published 2023)

Legend:
in vitro [1] = conditions: African green monkey
clinical = conditions: human, in vivo
[2] = system: SARS-CoV-2 B.1.1.7 strain; test: microbe, parasite or virus in culture; type: cell-based; conditions: Severe acute respiratory syndrome coronavirus 2; VeroE6 TMPRSS2 cells; read-out: EC50 against B.1.1.7 strain
[3] = system: SARS-CoV-2 B 1.351 strain; test: microbe, parasite or virus in culture; type: cell-based; conditions: Severe acute respiratory syndrome coronavirus 2; VeroE6 TMPRSS2 cells; read-out: EC50 against B 1.351 strain
[4] = human, in vivo
SARS-CoV-2 = test: Inhibition of SARS-CoV-2 replication in Caco-2 cells; type: cell-based; conditions: Severe acute respiratory syndrome coronavirus 2
SARS-CoV-2 D614 strain = test: microbe, parasite or virus in culture; type: cell-based; conditions: Severe acute respiratory syndrome coronavirus 2; VeroE6 TMPRSS2 cells; read-out: EC50 against D614 strain
in vitro [5] = conditions: human
[6] = asthmatic mice, niclosamide in corn oil, I.P. injection; cited from earlier work
all targeted strains = test: Minimum Inhibitory Concentration (MIC) assay, all strains; conditions: read-out: MIC against all targeted strains
TMEM16A = target: T1, TMEM16A (Homo sapiens, UniProt Q5XXA6); conditions: cited from earlier work
T1 sequence (Q5XXA6 1-986): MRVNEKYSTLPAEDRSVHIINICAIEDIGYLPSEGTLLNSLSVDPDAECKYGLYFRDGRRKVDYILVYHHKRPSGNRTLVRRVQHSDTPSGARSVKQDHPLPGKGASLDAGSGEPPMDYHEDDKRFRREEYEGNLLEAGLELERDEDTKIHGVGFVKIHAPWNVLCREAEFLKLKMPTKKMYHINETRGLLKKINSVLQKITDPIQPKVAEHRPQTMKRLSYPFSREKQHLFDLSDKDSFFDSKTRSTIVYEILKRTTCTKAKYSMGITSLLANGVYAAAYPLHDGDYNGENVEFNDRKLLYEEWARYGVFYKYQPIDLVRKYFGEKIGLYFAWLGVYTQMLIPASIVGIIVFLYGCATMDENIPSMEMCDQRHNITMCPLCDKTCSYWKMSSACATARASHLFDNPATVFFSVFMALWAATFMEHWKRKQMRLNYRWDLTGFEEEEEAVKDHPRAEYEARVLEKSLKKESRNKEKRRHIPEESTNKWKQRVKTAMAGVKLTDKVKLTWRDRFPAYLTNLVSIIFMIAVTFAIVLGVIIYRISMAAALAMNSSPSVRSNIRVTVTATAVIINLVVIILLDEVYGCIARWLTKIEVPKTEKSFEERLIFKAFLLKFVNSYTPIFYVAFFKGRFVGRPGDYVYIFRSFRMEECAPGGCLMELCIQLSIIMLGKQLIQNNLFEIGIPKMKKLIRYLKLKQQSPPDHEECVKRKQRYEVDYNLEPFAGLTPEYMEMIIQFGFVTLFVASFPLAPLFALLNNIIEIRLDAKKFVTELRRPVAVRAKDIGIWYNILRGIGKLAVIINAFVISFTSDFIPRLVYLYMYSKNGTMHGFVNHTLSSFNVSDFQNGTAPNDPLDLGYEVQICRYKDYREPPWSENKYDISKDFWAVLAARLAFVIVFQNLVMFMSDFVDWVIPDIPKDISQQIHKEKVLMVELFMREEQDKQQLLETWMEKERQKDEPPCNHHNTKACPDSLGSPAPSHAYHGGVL

TMEM16F = target: T2, TMEM16F (Homo sapiens, UniProt Q4KMQ2); conditions: cited from earlier work
T2 sequence (Q4KMQ2 1-910): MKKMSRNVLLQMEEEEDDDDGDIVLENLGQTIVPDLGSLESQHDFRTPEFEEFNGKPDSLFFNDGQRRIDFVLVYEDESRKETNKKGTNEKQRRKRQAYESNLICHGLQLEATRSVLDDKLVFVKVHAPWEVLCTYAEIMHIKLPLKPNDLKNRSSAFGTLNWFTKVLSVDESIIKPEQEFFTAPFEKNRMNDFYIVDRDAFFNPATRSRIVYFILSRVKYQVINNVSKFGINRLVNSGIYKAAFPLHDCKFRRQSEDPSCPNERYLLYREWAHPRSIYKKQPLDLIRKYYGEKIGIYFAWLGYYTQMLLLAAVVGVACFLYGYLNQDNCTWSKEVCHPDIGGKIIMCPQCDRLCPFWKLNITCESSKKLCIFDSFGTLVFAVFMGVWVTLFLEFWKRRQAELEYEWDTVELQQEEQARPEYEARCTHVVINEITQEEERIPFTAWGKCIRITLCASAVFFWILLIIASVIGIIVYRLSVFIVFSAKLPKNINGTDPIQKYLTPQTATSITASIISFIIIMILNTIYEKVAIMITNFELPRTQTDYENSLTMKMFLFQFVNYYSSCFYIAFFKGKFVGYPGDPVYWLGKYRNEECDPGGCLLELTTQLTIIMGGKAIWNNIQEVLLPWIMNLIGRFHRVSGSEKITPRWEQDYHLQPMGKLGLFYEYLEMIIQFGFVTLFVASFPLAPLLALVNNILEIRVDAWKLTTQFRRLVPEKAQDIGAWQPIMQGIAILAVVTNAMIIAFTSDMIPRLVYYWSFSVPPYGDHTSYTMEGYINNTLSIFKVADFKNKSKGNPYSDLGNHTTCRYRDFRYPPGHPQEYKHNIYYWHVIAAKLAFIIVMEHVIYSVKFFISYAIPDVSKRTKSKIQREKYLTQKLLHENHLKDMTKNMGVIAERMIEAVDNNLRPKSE

[7] = 2 g/day oral dose; IC90 against SARS-CoV-2
SARS-CoV = conditions: cited from earlier work

SMILES	CC50 (in vitro [1]) [nM]	AUC(0-t) (clinical) [ng·h/mL]	Cmax (clinical; maximum plasma concentration (Cmax), mean) [ng/mL]	EC50 [2] [nM]	EC50 [3] [nM]	peak concentrations in blood (range) [4] [ng/mL]	EC50 (SARS-CoV-2) [nM]	EC50 (SARS-CoV-2 D614 strain) [nM]	CC50 (in vitro [5]) [nM]	effect on mucus production and secretion and bronchoconstriction [6]	MIC (all targeted strains) [µg/mL]	inhibition of TMEM16A (TMEM16A)	inhibition of TMEM16F (TMEM16F)	efficacy margin, mean systemic exposure of human oral dose to IC90 [7] [fold]	concentration at which viral antigen synthesis was totally abolished (SARS-CoV) [μm]	concentration suppressing cytopathic effect (CPE), as low as (SARS-CoV) [μm]
O=C(Nc1ccc([N+](=O)[O-])cc1Cl)c1cc(Cl)ccc1O [niclosamide ethanolamine]	> 10000	509	239	80	70	29 to 506	80	130	> 10000							
O=C(Nc1ccc([N+](=O)[O-])cc1Cl)c1cc(Cl)ccc1O [niclosamide, 5-chloro-N-(2-chloro-4-nitrophenyl)-2-hydroxybenzamide]										reduced mucus production and secretion, as well as bronchoconstriction	≤ 0.5	potent inhibitor	potent inhibitor	8	1.56	1
